Patent publication US20040259942A1, “Modulation of stat activity” (priority 2001, published 2004)

Tests used:
murine STAT3 = assay: STAT3-dependent luciferase reporter (SIE2-luc) in transfected COS-1 cells; format: cell-based; conditions: COS-1 cells transfected with murine STAT3
Method: (c) COS-1 cells were transfected with an expression vector for STAT3, a STAT3-responsive luciferase reporter (SIE2-luc) and a control gene for β-galactosidase. […] After 6 hours cells were harvsted and reporter gene expression analysed. Results are normalised against β-galactosidase values and expressed as averages +/−SD (n=3).

ERKs = assay: ERK phosphorylation (Western blotting); format: cell-based, human; conditions: for activation of ERKs by TPA (phosphorylation of ERK½): BR293 cells; for activation of ERKs in response to serum: result not shown
Method: (§1) ERKs are unaffected by OdDHL (a) BR293 cells were serum-starved (lane 1) or starved and stimulated with TPA for 30 min alone (lane 2) or in the presence of increasing concentrations of OdDHL (lanes 3-6) or 100 μM OHHL (lane 7). Cell lysates were prepared and analysed by Western blotting for ERK phosphorylation with an antibody specific for phospho-ERK½ (upper panel) and for ERK content with an antibody against ERKs (lower panel). (b) BR293 cells were serum-starved (lane 1) or starved and stimulated with Anisomycin for 30 min alone (lane 2) or in the presence of increasing concentrations of OdDHL (lanes 3-6) or 100 μM OHHL (lane 7). Cell lysates were prepared and analysed by Western blotting for JNK/SAPK phosphorylation with an antibody specific for phospho-JNKs (upper panel) and for SAPK/JNK content with an antibody against JNKs (lower panel). (c) BR293 cells were treated as described in (b) and lysates were analysed by Western blotting for p38^MAPK phosphorylation with an antibody specific for phospho-p38 (upper panel) and for p38 content with an antibody against p38 (lower panel).

BR293 cells = assay: Cell proliferation assay (cell counting); format: cell-based, human; conditions: for growth of cultured cells (confluence): full medium, 48 h, 100 μM (FIG. 16a)
Method: Equal numbers of BR293 and MDA-MB-468 cells were seeded in MEM containing 10% FCS into 10 cm dishes. […]. For the 48 time points, fresh medium containing the appropriate inhibitor was applied to the cells after 24 hours. Controls were allowed to grow for 48 hours in the absence of inhibitor. Thereafter, all the cells were washed twice with ice cold PBS, harvested and counted under a phase-contrast microscope. Values are expressed as averages+S.D. (n=3).
(§2) Equal numbers of BR293, MCF-10F, MCF-7, MDA-MB-468, HKEK293 and COS1 cells were seeded in the appropriate growth medium into 10 cm dishes. Cells were allowed to grow in the presence of various concentrations of OdDHL or OHHL for 24 or 48 hours. For the 48-hour time points, fresh medium containing the appropriate inhibitor was applied to the cells after 24 hours. Controls were allowed to grow for 48 hours in the absence of inhibitor. Thereafter, all the cells were washed twice with ice cold PBS, harvested and counted under a phase-contrast microscope. Values are expressed as averages ±S.D. (n=3).

STAT1 and 3 = assay: STAT complex formation in serum-starved cells treated with AHL alone (EMSA); format: cell-based, human; conditions: serum-starved BR293 cells; up to 2 h
From the text: Cells were lysed and the DNA-binding activity of STAT1 and 3 was examined by EMSA.

MCF-10F cells = assay: Cell proliferation assay (cell counting); format: cell-based, human; conditions: non-tumorigenic breast epithelial cells; 48 hours
Method: Breast cancer cell lines (BR293, MCF-7 and MDA-MB-468) were maintained in Minimum Essential Medium Eagle (MEM, Sigma) supplemented with 10% foetal calf serum (FCS), 1% MEM non-essential amino acids, 1% glutamine and 1% penicillin-streptomycin at 37° C. under 5% CO2. […] These cell lines are well-known, and widely available to persons in the field. In particular, the following lines are deposited with the American Type Culture Collection (ATTC) with the following identifying codes:
as §2

JAK2 = target: T1, JAK2 (Homo sapiens, UniProt O60674); assay: Serum-induced JAK2 tyrosine phosphorylation (immunoblot); format: cell-based; conditions: preliminary data, unpublished
T1 construct: endogenous in cells; host or cells: BR293
T1 sequence (O60674 whole entry): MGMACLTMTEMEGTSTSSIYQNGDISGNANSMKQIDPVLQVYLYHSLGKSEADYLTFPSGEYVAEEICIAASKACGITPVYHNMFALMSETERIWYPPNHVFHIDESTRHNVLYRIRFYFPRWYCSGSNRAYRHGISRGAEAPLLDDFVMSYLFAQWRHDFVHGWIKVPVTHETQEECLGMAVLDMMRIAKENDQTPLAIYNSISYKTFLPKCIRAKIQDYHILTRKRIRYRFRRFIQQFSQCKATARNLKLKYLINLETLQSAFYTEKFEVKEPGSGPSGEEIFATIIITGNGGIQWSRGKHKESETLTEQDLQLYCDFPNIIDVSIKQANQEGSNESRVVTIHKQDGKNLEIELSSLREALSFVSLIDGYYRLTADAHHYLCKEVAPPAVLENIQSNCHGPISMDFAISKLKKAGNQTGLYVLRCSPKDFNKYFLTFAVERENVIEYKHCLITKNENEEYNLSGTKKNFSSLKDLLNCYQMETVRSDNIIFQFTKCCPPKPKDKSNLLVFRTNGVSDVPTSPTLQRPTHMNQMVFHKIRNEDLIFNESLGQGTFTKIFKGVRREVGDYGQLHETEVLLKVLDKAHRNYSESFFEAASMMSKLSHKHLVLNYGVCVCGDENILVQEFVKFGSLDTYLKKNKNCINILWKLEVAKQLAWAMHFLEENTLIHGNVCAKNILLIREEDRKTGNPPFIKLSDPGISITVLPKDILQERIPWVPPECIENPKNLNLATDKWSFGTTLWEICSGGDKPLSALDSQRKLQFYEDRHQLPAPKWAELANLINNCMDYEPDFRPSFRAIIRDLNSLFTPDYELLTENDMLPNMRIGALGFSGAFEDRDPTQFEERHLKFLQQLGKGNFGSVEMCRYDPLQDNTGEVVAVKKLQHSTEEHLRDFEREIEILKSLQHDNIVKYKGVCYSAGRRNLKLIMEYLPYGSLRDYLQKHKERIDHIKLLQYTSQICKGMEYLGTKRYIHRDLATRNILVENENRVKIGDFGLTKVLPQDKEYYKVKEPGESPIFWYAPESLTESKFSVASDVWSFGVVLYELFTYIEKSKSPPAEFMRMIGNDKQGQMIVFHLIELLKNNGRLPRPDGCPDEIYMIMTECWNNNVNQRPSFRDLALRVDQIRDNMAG
Method: For immunoprecipitation and immunoblotting experiments, cells were grown to confluence in 10 cm dishes and maintained in full medium or starved in serum-free medium overnight before the application of appropriate stimuli. Lysates were prepared in TBSN buffer (50 mM Tris-HCl pH7.5, 150 mM NaCl, 1 mM EDTA, 1% NP-40) supplemented with protease inhibitors (1 mM Na3 VO4, 10 mM Na4P2O7, 10 mM NaF, 5 mM EGTA, 10 mM Benzamidine, 0.2 mM PMSF and 1 μg/ml each of leupeptin, aprotinin, pepstatin). Lysates were cleared by centrifugation at 16,000×g for 10 minutes and used directly for immunoprecipitations or stored at −20° C. for further use.
Equal amounts of lysates were incubated with the appropriate antibody for 2 hours at 4° C.
Immune complexes were then allowed to bind to protein A-Sepharose beads for 1 hour at 4° C. and collected by centrifugation. Immunoprecipitates were washed three times in 100 mM Tris-HC1 pH 7.5, […], 1 mM EDTA, 0.1 mM PMSF, 0.5% NP-40. Thereafter, samples were taken up in sodium dodecyl sulphate (SDS) loading buffer and boiled for 5 min.
Samples were separated by electrophoresis through 6% polyacrylamide-SDS gels. Proteins were then transferred to polyvinylidene difluoride (PVDF) membranes with a semi-dry electroblotting apparatus. […]

p46/p54 JNK/SAPK = assay: JNK/SAPK phosphorylation in anisomycin-treated cells (Western blotting); format: cell-based, human; conditions: BR293 cells treated with anisomycin
Method: as §1

[1] = system: poly ADP-ribose polymerase (PARP); assay: PARP cleavage by Western blotting; format: cell-based, human; conditions: 100 μM, 18 hours
Method: OdDHL induces apoptosis of BC cells (a) MCF-7 cells were cultured in full medium alone or in the presence of 1001M OdDHL or 100 μM OHHL. After 18 hours cells were fixed, stained with DAPI and examined by confocal microscopy. Left-hand panels show DAPI, right-hand panels show the corresponding phase contrast and middle panels the image overlays. (b) MDA-MB-468 cells were cultured in full medium alone or in the presence of 100 μM OdDHL or 100 μM OHHL. After 18 hours cells were fixed, stained and examined as in (a). (c) BR293, MCF-7 and MDA-MD-468 cells were cultured in full medium alone (lanes 1, 3, 5) or in the presence of 100 μM OdDHL (lanes 2, 4, 6) or 400 μM etoposide (lane 7). After 18 hours cells were lysed and analysed for PARP cleavage by Western blotting with an anti-PARP antibody. Full length PARP is labelled and the lower arrow indicates the major caspase cleavage fragment.

Structure (SMILES)	EGF-stimulated STAT3-dependent reporter gene expression, effect of co-treatment (murine STAT3)	activation of ERKs by TPA (phosphorylation of ERK½) (ERKs)	activation of ERKs in response to serum (ERKs)	growth of cultured cells (confluence) (BR293 cells)	STAT complex formation by AHL alone (STAT1 and 3)	effect on proliferation (MCF-10F cells)	JAK2 phosphorylation in serum-stimulated cells (JAK2)	p46/p54 JNK/SAPK phosphorylation (p46/p54 JNK/SAPK)	PARP cleavage ([1]; BR293 cells)	PARP cleavage ([1]; MCF-7 cells)	PARP cleavage ([1]; MDA-MB-468 cells, compared with 400 μM etoposide)	inhibition of proliferation (BR293 cells; over a 48-hour period)
CCCC(=O)CC(=O)N[C@H]1CCOC1=O [OHHL, N-(3-oxohexanoyl)-L-homoserine lactone, reference compound]	had no effect	Neither OdDHL nor OHHL had any effect	Neither OdDHL nor OHHL had any effect	reached confluence in 48 hours	did not induce STAT complex formation	–	–	–	–	–	–	–
CCCCCCCCCC(=O)CC(=O)N[C@H]1CCOC1=O [OdDHL, N-(3-oxo-dodecanoyl)-L-homoserine lactone]	augmented	Neither OdDHL nor OHHL had any effect	Neither OdDHL nor OHHL had any effect	grew poorly or not at all	did not induce STAT complex formation	slight	does not interfere with JAK2 phosphorylation	modest but reproducible inhibition	characteristic cleavage fragment was detected	induced PARP cleavage	to the same extent as etoposide	70%-80%
